Results on 14 compounds are retold here after ChEMBL document CHEMBL1152924, “Synthetic staurosporines via a ring closing metathesis strategy as potent JAK3 inhibitors and modulators of allergic responses” (Bioorg Med Chem Lett, 2009).

Structures are written as SMILES.

The test system of experiment [1] is Jurkat. The experiment is described as follows: Antiproliferative activity against JAK3 expressing human resting Jurkat cells. In kind it is functional, cell-based.
Experiment [2] concerns Jurkat. The experiment is described as follows: Antiproliferative activity against JAK3 expressing IL2-stimulated human Jurkat cells. Format: functional, cell-based.
The target of experiment [3] is MAP kinase-activated protein kinase 2 (Homo sapiens, UniProt P49137). In words: Inhibition of MK2-mediated inhibition of biotinylated substrate phosphorylation.
The target of experiment [4] is Tyrosine-protein kinase Lck (Homo sapiens, UniProt P06239). In words: Inhibition of LCK-mediated inhibition of biotinylated substrate phosphorylation.
Experiment [5] concerns the target T1, Tyrosine-protein kinase ZAP-70 (Homo sapiens, UniProt P43403).
T1 sequence (P43403 whole entry): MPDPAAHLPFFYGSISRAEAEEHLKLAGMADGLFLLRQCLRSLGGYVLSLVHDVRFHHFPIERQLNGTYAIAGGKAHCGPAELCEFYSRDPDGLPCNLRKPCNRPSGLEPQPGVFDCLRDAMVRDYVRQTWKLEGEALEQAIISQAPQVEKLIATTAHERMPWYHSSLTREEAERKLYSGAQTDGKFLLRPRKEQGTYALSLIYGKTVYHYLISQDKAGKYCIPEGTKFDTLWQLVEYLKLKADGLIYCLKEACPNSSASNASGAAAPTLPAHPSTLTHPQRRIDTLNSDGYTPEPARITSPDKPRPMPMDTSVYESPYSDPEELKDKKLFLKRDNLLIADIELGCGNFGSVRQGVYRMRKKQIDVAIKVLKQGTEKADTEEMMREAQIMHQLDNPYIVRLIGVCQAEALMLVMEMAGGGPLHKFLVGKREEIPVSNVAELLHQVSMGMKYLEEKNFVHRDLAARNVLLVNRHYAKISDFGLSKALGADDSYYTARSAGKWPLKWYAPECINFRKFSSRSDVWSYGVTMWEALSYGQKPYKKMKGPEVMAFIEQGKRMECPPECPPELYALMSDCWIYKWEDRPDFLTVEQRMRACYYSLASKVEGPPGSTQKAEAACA
The experiment is described as follows: Inhibition of Zap70-mediated inhibition of biotinylated substrate phosphorylation.

The target of experiment [6] is T2, Tyrosine-protein kinase JAK3 (Homo sapiens, UniProt P52333).
T2 sequence (P52333 whole entry): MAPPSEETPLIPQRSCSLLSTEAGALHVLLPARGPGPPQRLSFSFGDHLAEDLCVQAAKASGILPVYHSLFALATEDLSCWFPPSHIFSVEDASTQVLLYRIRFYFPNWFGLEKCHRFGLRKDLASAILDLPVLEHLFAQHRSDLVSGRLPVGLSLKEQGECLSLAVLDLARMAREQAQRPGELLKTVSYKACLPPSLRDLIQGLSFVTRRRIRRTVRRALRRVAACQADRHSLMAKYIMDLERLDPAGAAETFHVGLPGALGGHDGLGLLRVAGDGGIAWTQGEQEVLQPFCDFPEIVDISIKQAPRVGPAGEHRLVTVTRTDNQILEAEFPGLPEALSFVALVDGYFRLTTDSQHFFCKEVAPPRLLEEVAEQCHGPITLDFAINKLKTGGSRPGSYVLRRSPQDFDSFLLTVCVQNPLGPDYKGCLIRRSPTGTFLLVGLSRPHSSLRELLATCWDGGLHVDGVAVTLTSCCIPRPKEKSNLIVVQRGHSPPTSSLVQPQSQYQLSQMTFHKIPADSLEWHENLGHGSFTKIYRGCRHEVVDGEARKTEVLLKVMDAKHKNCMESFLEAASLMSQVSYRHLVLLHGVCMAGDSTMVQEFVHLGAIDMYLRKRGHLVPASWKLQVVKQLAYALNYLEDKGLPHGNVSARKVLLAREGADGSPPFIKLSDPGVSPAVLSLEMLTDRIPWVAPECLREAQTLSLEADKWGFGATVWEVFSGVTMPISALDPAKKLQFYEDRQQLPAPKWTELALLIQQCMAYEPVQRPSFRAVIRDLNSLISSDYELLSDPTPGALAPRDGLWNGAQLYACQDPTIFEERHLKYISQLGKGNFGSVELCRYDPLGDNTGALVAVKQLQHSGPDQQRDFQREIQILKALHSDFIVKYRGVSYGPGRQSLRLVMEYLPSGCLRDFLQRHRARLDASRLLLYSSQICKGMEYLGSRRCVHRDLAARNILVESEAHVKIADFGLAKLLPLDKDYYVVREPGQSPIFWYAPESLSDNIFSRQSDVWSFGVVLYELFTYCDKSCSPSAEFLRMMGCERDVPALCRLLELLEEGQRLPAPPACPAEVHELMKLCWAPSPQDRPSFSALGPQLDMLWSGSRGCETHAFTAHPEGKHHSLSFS
In words: Inhibition of JAK3 expressed in insect Sf21 cells assessed as inhibition of biotinylated substrate phosphorylation.

Experiment [7] addresses Tyrosine-protein kinase SYK (Homo sapiens, UniProt P43405). The experiment is described as follows: Inhibition of SYK-mediated inhibition of biotinylated substrate phosphorylation.
In a further experiment the test system is T-cell. In words: Inhibition of IL2-induced PHA-stimulated healthy human T cells proliferation by [3H]thymidine assay. In kind it is functional, cell-based.
Experiment [8] has as its system Mus musculus. The experiment is described as follows: Antiinflammatory activity against ovalbumin-induced asthma in BALB/c mouse model assessed as reduction of eosinophil count in broncheovular lavage fluid at 30 mg/kg, ip measured on day 32 after ovalbumin challenge. In kind it is functional. Also on record: scale not given: the % may be the effect or the level left. The settings on record: route intraperitoneal.

Experiment [9] has as its system Mus musculus. The experiment is described as follows: Inhibition of ovalbumin-induced IgE production in mouse at 10 mg/kg, ip administered on day 1, 3 and 5 after 1 hr of ovalbumin challenge followed by additional dosing on day 2 and 4 measured on day 8 by ELISA. Format: functional. The settings on record: route intraperitoneal. Details: scale not given: the % may be the effect or the level left.

Experiment [10] concerns Mus musculus. The experiment is described as follows: Antiinflammatory activity against ovalbumin-induced asthma in BALB/c mouse model assessed as reduction in methacoline-induced airway constriction at 30 mg/kg, ip measured on day 32 after ovalbumin challenge. Format: functional. Details: scale not given: the % may be the effect or the level left. The settings on record: route intraperitoneal.

The subject of experiment [11] is Mast cell. In words: Inhibition of LPS-induced TNFalpha release in mast cells. In kind it is functional, cell-based.
The test system of experiment [12] is Mast cell. In words: Inhibition of hexosaminidase release in IgE-stimulated mast cells. In kind it is functional, cell-based.
The test system of experiment [13] is Mus musculus. In words: Inhibition of ovalbumin-induced IgE production in mouse at 30 mg/kg, ip administered on day 1, 3 and 5 after 1 hr of ovalbumin challenge followed by additional dosing on day 2 and 4 measured on day 8 by ELISA. Format: functional. Also on record: scale not given: the % may be the effect or the level left. The settings on record: route intraperitoneal. For orientation: ELISA stands for enzyme-linked immunosorbent assay.

In experiment [14] the test system is Mus musculus. The experiment is described as follows: Antiinflammatory activity against ovalbumin-induced asthma in BALB/c mouse model assessed as reduction of neutrophil count in broncheovular lavage fluid at 30 mg/kg, ip measured on day 32 after ovalbumin challenge. In kind it is functional. Also on record: scale not given: the % may be the effect or the level left. The settings on record: route intraperitoneal.

Chain of Tyrosine-protein kinase Lck (P06239 whole entry): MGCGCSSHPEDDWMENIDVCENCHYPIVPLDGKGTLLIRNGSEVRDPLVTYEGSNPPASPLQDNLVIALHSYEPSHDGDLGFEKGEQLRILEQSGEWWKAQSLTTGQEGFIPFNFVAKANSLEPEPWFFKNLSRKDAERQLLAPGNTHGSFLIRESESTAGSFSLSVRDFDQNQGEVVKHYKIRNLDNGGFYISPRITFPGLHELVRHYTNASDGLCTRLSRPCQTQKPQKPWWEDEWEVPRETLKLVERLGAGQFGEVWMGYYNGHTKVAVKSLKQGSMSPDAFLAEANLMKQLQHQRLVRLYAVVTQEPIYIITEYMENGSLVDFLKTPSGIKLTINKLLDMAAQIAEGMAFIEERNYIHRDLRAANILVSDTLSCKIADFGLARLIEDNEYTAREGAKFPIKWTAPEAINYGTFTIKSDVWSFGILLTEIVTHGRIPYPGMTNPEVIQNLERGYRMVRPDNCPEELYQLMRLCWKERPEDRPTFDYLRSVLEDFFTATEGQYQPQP
Chain of MAP kinase-activated protein kinase 2 (P49137 whole entry): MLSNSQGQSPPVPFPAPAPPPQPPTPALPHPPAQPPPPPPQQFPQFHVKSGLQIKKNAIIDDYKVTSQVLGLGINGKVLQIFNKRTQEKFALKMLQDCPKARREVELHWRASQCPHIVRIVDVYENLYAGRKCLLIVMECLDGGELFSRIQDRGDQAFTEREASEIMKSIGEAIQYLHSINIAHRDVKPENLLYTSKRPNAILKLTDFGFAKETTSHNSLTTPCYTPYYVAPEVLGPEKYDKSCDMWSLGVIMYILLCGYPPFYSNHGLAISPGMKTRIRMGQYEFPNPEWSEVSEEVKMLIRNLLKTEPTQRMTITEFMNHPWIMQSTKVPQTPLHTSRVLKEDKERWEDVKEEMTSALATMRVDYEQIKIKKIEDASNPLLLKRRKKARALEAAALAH

For orientation: IC50 means the point on the concentration scale where inhibition reaches its midpoint. In the case of `O=C1NC(=O)c2c1c1c3ccccc3n3c1c1c2c2ccccc2n1CC(O)CC3` (stereo not given), the values for the IC50 in the experiment with Jurkat [1] and in the experiment on Jurkat [2] were 5670 nM and 160 nM, respectively.

With `COC(=O)[C@]1(O)Cn2c3ccccc3c3c4c(c5c6ccccc6n(c5c32)C[C@H]1O)C(=O)NC4=O` (relative stereo), the concentration for half-maximal inhibition (IC50) in [3] was > 1000 nM; in [4], 300 nM; with Jurkat [1], > 10000 nM; in experiment [5], > 1000 nM; in [6] it was 1 nM; with Jurkat [2], 23 nM. Moreover, the IC50 in [7] is > 1000 nM.

As for `O=C1NCc2c1c1c3ccccc3n3c1c1c2c2ccccc2n1C[C@@H](O)[C@@H](O)C3` (relative stereo), the IC50 is > 1000 nM in [3]; > 1000 nM in experiment [4]; 10000 nM in the experiment on Jurkat [1]; 100 nM in the experiment on T-cell; 200 nM in experiment [5]; 6 nM in [6]. In addition, the IC50 is 18 nM with Mast cell [11], 55 nM in the experiment with Mast cell [12], 98 nM in the experiment on Jurkat [2] and 300 nM in experiment [7]. Also, the Activity is 54% in the experiment with Mus musculus [8]; 15% in the experiment with Mus musculus [9]; 90% in the experiment with Mus musculus [10]; 70% in the experiment on Mus musculus [13]; 54% in the experiment on Mus musculus [14].

On to `O=C1NCc2c1c1c3ccccc3n3c1c1c2c2ccccc2n1CC[C@@H](O)[C@@H](O)CC3` (relative stereo), for which the IC50 came out at 616 nM in the experiment on Jurkat [1], 12 nM in [6] and 45 nM with Jurkat [2].

Consider `O=C1NC(=O)c2c1c1c3ccccc3n3c1c1c2c2ccccc2n1CC(O)CCC3` (stereo not given), for which the IC50 in the experiment with Jurkat [1] was > 10000 nM; in the experiment with Jurkat [2], 2860 nM.

Turning to `O=C1NC(=O)c2c1c1c3ccccc3n3c1c1c2c2ccccc2n1C[C@@](O)(C(=O)O)[C@H](O)C3` (relative stereo), the half-maximal inhibitory concentration (IC50) with Jurkat [1] was > 10000 nM; in [6] it was 9 nM; with Jurkat [2], 222 nM.

Turning to `O=C1NCc2c1c1c3ccccc3[nH]c1c1[nH]c3ccccc3c21` [STAUROSPORINONE], in experiment [6], the 50% inhibitory concentration (IC50) worked out at 61 nM.

`CN(C)C1CCN(C(=O)[C@]2(O)Cn3c4ccccc4c4c5c(c6c7ccccc7n(c6c43)C[C@H]2O)C(=O)NC5=O)C1` (stereo not given in full): the IC50 worked out at 1600 nM with Jurkat [1], 15 nM in experiment [6] and 57 nM in the experiment on Jurkat [2].

On to `O=C1NC(=O)c2c1c1c3ccccc3n3c1c1c2c2ccccc2n1C[C@@H](O)[C@@H](O)CC3` (relative stereo), for which the IC50 in the experiment with Jurkat [1] was > 10000 nM; in experiment [6] it was 9 nM; with Jurkat [2] it was 227 nM.

Consider `O=C1NCc2c1c1c3ccccc3n3c1c1c2c2ccccc2n1C/C=C\C3`, for which the results for the 50% inhibitory concentration (IC50) (in the experiment on Jurkat [1]; in experiment [6]; with Jurkat [2]) were > 10000 nM, 39 nM and 111 nM, respectively.

As to `C=CCn1c2ccccc2c2c3c(c4c5ccccc5n(CC=C)c4c21)C(=O)NC3`, in experiment [6], the 50% inhibitory concentration (IC50) is > 200 nM.

As to `O=C1NCc2c1c1c3ccccc3n3c1c1c2c2ccccc2n1CC/C=C\CC3`, the half-inhibitory concentration (IC50) with Jurkat [1] came to 10000 nM; in the experiment on Jurkat [2] it was 432 nM.

With `O=C1NC(=O)c2c1c1c3ccccc3n3c1c1c2c2ccccc2n1C[C@H](O)[C@H](O)C3`, the values for the 50% inhibitory concentration (IC50) (in the experiment on Jurkat [1]; in experiment [6]; in the experiment on Jurkat [2]) were > 10000 nM, 3 nM and 48 nM, respectively.

For `CC(=O)/C1=C/Cn2c3ccccc3c3c4c(c5c6ccccc6n(c5c32)C1)C(=O)NC4=O`, the 50% inhibitory concentration (IC50) in experiment [3] is 540 nM; in experiment [4], > 1000 nM; with Jurkat [1] it was > 10000 nM; in experiment [5], > 1000 nM; in [6], 7 nM; in the experiment on Jurkat [2], 575 nM. Also, the IC50 in experiment [7] was > 1000 nM.
